Experimental data from patent US12581252B2, “Substituted pyrrolo[3,4-b]pyridines as PI3K-α inhibitors” (Relay Therapeutics, Inc., priority 2020, dated 2026).

Molecular target: H1047R PIK3CA enzyme (Homo sapiens, UniProt P42336, H1047R)
Experiment: ADP-Glo Biochemical PIK3CA Kinase Assay

Sequence of H1047R PIK3CA enzyme (P42336 whole entry H1047R): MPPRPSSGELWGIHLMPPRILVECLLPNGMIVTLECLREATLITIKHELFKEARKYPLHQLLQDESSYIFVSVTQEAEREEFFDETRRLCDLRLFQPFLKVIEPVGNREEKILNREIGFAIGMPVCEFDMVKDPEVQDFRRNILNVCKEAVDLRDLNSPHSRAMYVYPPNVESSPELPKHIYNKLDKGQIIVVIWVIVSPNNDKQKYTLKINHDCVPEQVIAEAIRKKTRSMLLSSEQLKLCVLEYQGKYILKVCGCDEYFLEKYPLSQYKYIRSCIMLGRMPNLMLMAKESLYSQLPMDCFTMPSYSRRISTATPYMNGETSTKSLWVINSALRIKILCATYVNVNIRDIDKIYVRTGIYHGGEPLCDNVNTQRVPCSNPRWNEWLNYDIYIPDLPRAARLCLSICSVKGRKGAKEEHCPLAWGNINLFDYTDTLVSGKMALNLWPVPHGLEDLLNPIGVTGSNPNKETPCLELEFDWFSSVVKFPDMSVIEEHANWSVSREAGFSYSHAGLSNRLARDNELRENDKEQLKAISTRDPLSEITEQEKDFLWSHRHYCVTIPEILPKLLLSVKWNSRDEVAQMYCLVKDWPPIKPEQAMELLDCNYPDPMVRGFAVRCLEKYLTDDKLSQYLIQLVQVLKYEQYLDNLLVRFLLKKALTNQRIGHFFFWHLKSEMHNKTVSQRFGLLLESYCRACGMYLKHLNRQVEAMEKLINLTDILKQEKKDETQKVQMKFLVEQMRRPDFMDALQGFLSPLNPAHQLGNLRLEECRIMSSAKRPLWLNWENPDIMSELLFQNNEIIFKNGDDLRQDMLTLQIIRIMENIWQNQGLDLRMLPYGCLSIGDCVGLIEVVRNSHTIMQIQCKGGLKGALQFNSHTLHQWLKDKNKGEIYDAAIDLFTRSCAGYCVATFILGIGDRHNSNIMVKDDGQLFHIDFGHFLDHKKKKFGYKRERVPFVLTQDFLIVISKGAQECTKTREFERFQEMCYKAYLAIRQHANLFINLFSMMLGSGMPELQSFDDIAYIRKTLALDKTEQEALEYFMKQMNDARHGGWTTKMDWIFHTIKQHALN
Sequence of H1047R PIK3CA enzyme (P27986 whole entry partner): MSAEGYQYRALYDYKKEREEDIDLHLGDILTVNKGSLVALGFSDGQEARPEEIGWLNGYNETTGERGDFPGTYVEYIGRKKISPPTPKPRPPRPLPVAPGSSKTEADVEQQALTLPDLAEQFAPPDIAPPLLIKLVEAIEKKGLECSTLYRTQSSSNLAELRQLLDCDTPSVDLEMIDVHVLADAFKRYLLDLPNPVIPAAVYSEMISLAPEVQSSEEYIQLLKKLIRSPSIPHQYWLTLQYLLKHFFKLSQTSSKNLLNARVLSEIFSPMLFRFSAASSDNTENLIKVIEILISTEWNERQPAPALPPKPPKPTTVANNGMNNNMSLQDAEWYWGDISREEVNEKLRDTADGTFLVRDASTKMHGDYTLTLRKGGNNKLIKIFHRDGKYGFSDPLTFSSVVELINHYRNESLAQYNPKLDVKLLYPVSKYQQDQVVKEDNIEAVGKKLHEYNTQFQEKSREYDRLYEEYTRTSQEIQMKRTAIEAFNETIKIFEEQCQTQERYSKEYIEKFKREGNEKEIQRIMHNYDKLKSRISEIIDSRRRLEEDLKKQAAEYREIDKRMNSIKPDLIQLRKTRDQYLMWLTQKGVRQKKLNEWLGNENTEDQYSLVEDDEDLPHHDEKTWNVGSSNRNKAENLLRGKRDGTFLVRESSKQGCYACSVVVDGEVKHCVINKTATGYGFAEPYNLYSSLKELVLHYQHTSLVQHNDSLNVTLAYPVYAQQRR

| SMILES | IC50 [nM] |
| --- | --- |
| O=C1NC(c2cccc(F)c2F)c2c(NC(=O)c3csc4ccccc34)ccnc21 (stereo not shown) [Compound I-15, N-(5-(2,3-Difluorophenyl)-7-oxo-6,7-dihydro-5H-pyrrolo[3,4-b]pyridin-4-yl)benzo[b]thiophene-3-carboxamide] | 100 to 500 |
| Cc1ccccc1C1NC(=O)c2cccc(NC(=O)C(F)(F)F)c21 (stereo not shown) [Compound I-16] | 10000 to 100000 |
| Cc1ccccc1C1NC(=O)c2cccc(NC(=O)c3nn(C)c4ccccc34)c21 (stereo not shown) [Compound I-17] | 10000 to 100000 |
| COc1ccccc1C1NC(=O)c2cccc(NC(=O)c3csc4ccccc34)c21 (stereo not shown) [Compound I-18] | 1000 to 10000 |
| Cc1ccccc1C1NC(=O)c2cccc(NC(=O)c3coc4cc(F)ccc34)c21 (stereo not shown) [Compound I-20] | 500 to 1000 |
| Cc1ccccc1C1NC(=O)c2cccc(NC(=O)c3noc4ccc(F)cc34)c21 (stereo not shown) [Compound I-21] | 1000 to 10000 |
| O=C1N[C@H](c2cccc(F)c2F)c2c(NC(=O)c3csc4ccccc34)ccnc21 [Compound I-23] | 1000 to 10000 |
| Cc1ccccc1C1NC(=O)c2cccc(NC(=O)c3n[nH]c4ccccc34)c21 (stereo not shown) [Compound I-24] | 10000 to 100000 |
| Cc1ccccc1C1NC(=O)c2cccc(Nc3cc4ccccc4nn3)c21 (stereo not shown) [Compound I-27] | 10000 to 100000 |
| Cc1ccccc1C1NC(=O)c2cccc(Nc3nc(C)c4ccccc4n3)c21 (stereo not shown) [Compound I-28] | 10000 to 100000 |
| Cc1ccccc1C1NC(=O)c2cccc(NC(=O)c3cc(=O)[nH]c4ccccc34)c21 (stereo not shown) [Compound I-30] | 10000 to 100000 |
| O=C1NC(O)(c2cccc(F)c2F)c2c(NC(=O)c3csc4ccccc34)ccnc21 (stereo not shown) [Compound I-31] | 10000 to 100000 |
| O=C1N[C@@H](c2ccccc2Cl)c2c(NC(=O)c3csc4ccccc34)ccnc21 [Compound I-32] | 1000 to 10000 |
| Cc1ccccc1C1NC(=O)c2cccc(NC(=O)c3csc4c(F)cccc34)c21 (stereo not shown) [Compound I-36] | 100 to 500 |
| Cc1ccccc1[C@@H]1NC(=O)c2cccc(NC(=O)c3csc4c(F)cccc34)c21 [Compound I-37] | 10000 to 100000 |
| Cc1ccccc1C1NC(=O)c2cccc(NC(=O)c3noc4ccccc34)c21 (stereo not shown) [Compound I-41] | 10000 to 100000 |
| COc1ccc2scc(C(=O)Nc3cccc4c3C(c3ccccc3C)NC4=O)c2c1 (stereo not shown) [Compound I-42] | 1000 to 10000 |
| Cc1ccccc1C1NC(=O)c2cccc(NC(=O)N3CC(=O)Nc4ccccc43)c21 (stereo not shown) [Compound I-44] | 10000 to 100000 |
| Cc1ccccc1C1NC(=O)c2cccc(NC(=O)c3cnc4ccc(Cl)cn34)c21 (stereo not shown) [Compound I-47] | 10000 to 100000 |
| Cc1ccccc1C1NC(=O)c2cccc(NC(=O)c3cnn4ccc(Cl)cc34)c21 (stereo not shown) [Compound I-48] | 1000 to 10000 |
| Cc1cccnc1C1NC(=O)c2cccc(NC(=O)c3csc4ccccc34)c21 (stereo not shown) [Compound I-49] | 1000 to 10000 |
| Cc1ccccc1C1NC(=O)c2cccc(NC(=O)N3CCCc4ccccc43)c21 (stereo not shown) [Compound I-55] | 1000 to 10000 |
| Cc1ccccc1C1NC(=O)c2cc(NS(C)(=O)=O)cc(NC(=O)c3cc(F)cc(C(F)(F)F)c3)c21 (stereo not shown) [Compound I-56] | 100 to 500 |
| O=C1NC(c2ncccc2Cl)c2c(NC(=O)c3csc4ccccc34)cccc21 (stereo not shown) [Compound I-57] | 1000 to 10000 |
| Cc1ccccc1C1NC(=O)c2cccc(NC(=O)c3coc4c(F)cc(F)cc34)c21 (stereo not shown) [Compound I-58] | 100 to 500 |

| SMILES | IC50 [nM] |
| --- | --- |
| Cc1ccccc1C1NC(=O)c2cccc(NC(=O)c3cc(F)cc(OC(F)F)c3)c21 (stereo not shown) [Compound I-59] | 1000 to 10000 |
| Cc1ccccc1C1NC(=O)c2cccc(NC(=O)c3ccn4ccccc34)c21 (stereo not shown) [Compound I-61] | 100 to 500 |
| Cc1ccccc1C1NC(=O)c2cccc(N)c21 (stereo not shown) [Compound I-62] | 10000 to 100000 |
| Cc1ccccc1C1NC(=O)c2cccc(NC(=O)c3csc4cncnc34)c21 (stereo not shown) [Compound I-63] | 10000 to 100000 |
| Cc1ccccc1-n1[nH]c(=O)c2cccc(N)c21 [Compound I-64] | 1000 to 10000 |
| Cc1ccccc1[C@H]1NC(=O)c2cc(N)cc(NC(=O)c3cc(F)cc(C(F)(F)F)c3)c21 [Compound I-65] | 1000 to 10000 |
| Cc1ccccc1[C@@H]1NC(=O)c2cc(N)cc(NC(=O)c3cc(F)cc(C(F)(F)F)c3)c21 [Compound I-66] | ≤ 100 |
| Cc1ccccc1C1NC(=O)c2cccc(NC(=O)c3csc4cccc(F)c34)c21 (stereo not shown) [Compound I-67] | 1000 to 10000 |
| Cc1ccccc1-n1[nH]c(=O)c2cccc(NC(=O)c3csc4ccccc34)c21 [Compound I-68] | 500 to 1000 |
| Cc1ccccc1C1NC(=O)c2cccc(NC(=O)c3cc(Cl)n4ccccc34)c21 (stereo not shown) [Compound I-69] | 100 to 500 |
| O=C1NC(c2ccccc2OC(F)(F)F)c2c(NC(=O)c3csc4ccccc34)ccnc21 (stereo not shown) [Compound I-70] | 1000 to 10000 |
| O=C1NC(c2cc(F)ccc2F)c2c(NC(=O)c3csc4ccccc34)ccnc21 (stereo not shown) [Compound I-71] | 500 to 1000 |
| Cc1ccccc1[C@@H]1NC(=O)c2cccc(NC(=O)c3nsc4ccccc34)c21 [Compound I-72] | ≤ 100 |
| Cc1ccccc1[C@H]1NC(=O)c2cccc(NC(=O)c3nsc4ccccc34)c21 [Compound I-73] | 500 to 1000 |
| Cc1ccccc1C1NC(=O)c2cccc(NC(=O)c3csc4ccncc34)c21 (stereo not shown) [Compound I-74] | 1000 to 10000 |
| CNC(=O)c1cc(NC(=O)c2csc3ccccc23)c2c(c1)C(=O)N[C@@H]2c1ccccc1C [Compound I-75, (R)-7-(Benzo[b]thiophene-3-carboxamido)-N-methyl-3-oxo-1-(o-tolyl)isoindoline-5-carboxamide] | 1000 to 10000 |
| CNc1cc(Nc2csc3ccccc23)cc2c1C(=O)NC2c1ccccc1C (stereo not shown) [Compound I-77] | 1000 to 10000 |
| COc1cccc2scc(C(=O)Nc3cccc4c3C(c3ccccc3C)NC4=O)c12 (stereo not shown) [Compound I-78] | 10000 to 100000 |
| COc1ccc2c(C(=O)Nc3cccc4c3C(c3ccccc3C)NC4=O)csc2c1 (stereo not shown) [Compound I-79] | 10000 to 100000 |
| Cc1ccccc1C1(C)NC(=O)c2cccc(NC(=O)c3csc4ccccc34)c21 (stereo not shown) [Compound I-80, N-(3-Methyl-1-oxo-3-(o-tolyl)isoindolin-4-yl)benzo[b]thiophene-3-carboxamide] | 10000 to 100000 |
| Cc1ccccc1C1NC(=O)c2cccc(NC(=O)c3coc4c(F)cc(Cl)cc34)c21 (stereo not shown) [Compound I-81] | ≤ 100 |
| Cc1ccccc1C1c2c(NC(=O)c3csc4ccccc34)cccc2C(=O)N1C (stereo not shown) [Compound I-82] | 10000 to 100000 |
| O=C1NC(c2c(F)cccc2F)c2c(NC(=O)c3nsc4ccccc34)cccc21 (stereo not shown) [Compound I-84] | 1000 to 10000 |
| Cn1ncc(C2NC(=O)c3cccc(NC(=O)c4nsc5ccccc45)c32)c1C(F)(F)F (stereo not shown) [Compound I-85] | 1000 to 10000 |
| Cc1ccccc1C1NC(=O)c2cccc(NC(=O)c3c[nH]c(=O)c(F)c3)c21 (stereo not shown) [Compound I-86] | 10000 to 100000 |

| SMILES | IC50 [nM] |
| --- | --- |
| Cc1ccccc1C1NC(=O)c2cc(CN)cc(NC(=O)c3csc4ccccc34)c21 (stereo not shown) [Compound I-88, N-(6-(Aminomethyl)-1-oxo-3-(o-tolyl)isoindolin-4-yl)benzo[b]thiophene-3-carboxamide] | ≤ 100 |
| Cc1ccccc1[C@H]1NC(=O)c2cc(N)cc(NC(=O)c3nsc4ccccc34)c21 [Compound I-91] | 500 to 1000 |
| O=C1NC(c2ccccc2Cl)c2c(NC(=O)c3nsc4ccccc34)cc(Cl)nc21 (stereo not shown) [Compound I-93, N-[2-Chloro-5-(2-chlorophenyl)-7-oxo-5H,6H,7H-pyrrolo[3,4-b]pyridin-4-yl]-1,2-benzothiazole-3-carboxamide] | ≤ 100 |
| O=C1NC(c2ccccc2Cl)c2c(NC(=O)c3nsc4ccccc34)cc(-c3cn[nH]c3)nc21 (stereo not shown) [Compound I-94, N-(5-(2-Chlorophenyl)-7-oxo-2-(1H-pyrazol-4-yl)-6,7-dihydro-5H-pyrrolo[3,4-b]pyridin-4-yl)benzo[d]isothiazole-3-carboxamide] | 100 to 500 |
| Cc1ccccc1C1NC(=O)c2cccc(NC(=O)N3CC(C)c4ccccc43)c21 (stereo not shown) [Compound I-95] | 100 to 500 |
| Cc1ccccc1C1NC(=O)c2cccc(NC(=O)N3CCc4ccc(F)cc43)c21 (stereo not shown) [Compound I-96] | 100 to 500 |
| Cc1ccccc1[C@H]1NC(=O)c2cccc(NC(=O)c3coc4c(F)cc(F)cc34)c21 [Compound I-97] | 10000 to 100000 |
| Cc1ccccc1[C@@H]1NC(=O)c2cccc(NC(=O)c3coc4c(F)cc(F)cc34)c21 [Compound I-98] | 100 to 500 |
| O=C1NC(c2c(F)cccc2Cl)c2c(NC(=O)c3nsc4ccccc34)cccc21 (stereo not shown) [Compound I-99] | 500 to 1000 |
| O=C1NC(c2ccncc2Cl)c2c(NC(=O)c3csc4ccccc34)cccc21 (stereo not shown) [Compound I-101] | 1000 to 10000 |
| O=C1NC(c2ccc(F)cc2Cl)c2c(NC(=O)c3csc4ccccc34)cccc21 (stereo not shown) [Compound I-102] | ≤ 100 |
| Nc1cccc2c(=O)[nH]n(Cc3ccccc3)c12 [Compound I-103] | 10000 to 100000 |
| Cc1ccccc1C1NC(=O)c2cccc(NC(=O)N3CCc4c(F)cc(F)cc43)c21 (stereo not shown) [Compound I-104] | 100 to 500 |
| Cc1ccccc1C1NC(=O)c2cccc(NC(=O)c3nsc4ccc(F)cc34)c21 (stereo not shown) [Compound I-105] | 100 to 500 |
| Cc1c(F)cccc1C1NC(=O)c2cccc(NC(=O)c3nsc4ccccc34)c21 (stereo not shown) [Compound I-106] | 100 to 500 |
| CCOc1ncc(C(=O)Nc2cccc3c2C(c2ccccc2C)NC3=O)cc1F (stereo not shown) [Compound I-107] | 10000 to 100000 |
| Cn1cc(-c2cc(NC(=O)c3nsc4ccccc34)c3c(n2)C(=O)NC3c2ccccc2Cl)cn1 (stereo not shown) [Compound I-108] | 100 to 500 |
| Cc1ccccc1C1NC(=O)c2cccc(NC(=O)c3cnc(OC(C)C)c(F)c3)c21 (stereo not shown) [Compound I-109] | 10000 to 100000 |
| Cc1ccccc1C1NC(=O)c2cccc(NC(=O)N3CCc4ccc(Cl)cc43)c21 (stereo not shown) [Compound I-110] | 100 to 500 |
| Cc1ccccc1C1NC(=O)c2cccc(NC(=O)c3cnc(OCC(C)C)c(F)c3)c21 (stereo not shown) [Compound I-111] | 10000 to 100000 |
| Cc1ccccc1C1NC(=O)c2cccc(NC(=O)c3cc(F)cc(C(F)F)c3)c21 (stereo not shown) [Compound I-112] | 1000 to 10000 |
| Cn1cc(-c2cc(NC(=O)c3nsc4ccccc34)c3c(n2)C(=O)N[C@@H]3c2ccccc2Cl)cn1 [Compound I-113] | 100 to 500 |
| Cn1cc(-c2cc(NC(=O)c3nsc4ccccc34)c3c(n2)C(=O)N[C@H]3c2ccccc2Cl)cn1 [Compound I-114] | 1000 to 10000 |
